From PubChem BioAssay (NCI)
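Tested at 5 concentrations; 48 h exposure; 96-well plates; endpoints linearly interpolated, else capped at highest concentration. GI50 marks 50% less growth. TGI denotes the concentration required for complete inhibition of growth.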

Experiments:
Assay in all cases: growth of human tumour cells (NCI), 48 h
[1] = test system: DU-145 prostate
[2] = test system: SK-MEL-5 melanoma
[3] = test system: K-562 leukemia
[4] = test system: U251 CNS
[5] = test system: CAKI-1 renal
[6] = test system: CCRF-CEM leukemia
[7] = test system: ACHN renal
[8] = test system: SK-OV-3 ovarian
[9] = test system: MDA-MB-231 breast
[10] = test system: SF-268 CNS
[11] = test system: COLO 205 colon
[12] = test system: NCI-H460 lung
[13] = test system: PC-3 prostate
[14] = test system: SF-539 CNS
[15] = test system: SK-MEL-2 melanoma
[16] = test system: LOX IMVI melanoma
[17] = test system: HT29 colon
[18] = test system: RXF 393 renal
[19] = test system: OVCAR-8 ovarian
[20] = test system: 786-0 renal
[21] = test system: SN12C renal
[22] = test system: HCC-2998 colon
[23] = test system: UACC-257 melanoma
[24] = test system: UO-31 renal
[25] = test system: MALME-3M melanoma
[26] = test system: T-47D breast
[27] = test system: MDA-MB-435
[28] = test system: SF-295 CNS
[29] = test system: HOP-62 NSCLC
[30] = test system: BT-549 breast
[31] = test system: MOLT-4 leukemia
[32] = test system: RPMI-8226 leukemia
[33] = test system: UACC-62 melanoma
[34] = test system: A498 renal
[35] = test system: OVCAR-4 ovarian
[36] = test system: SW-620 colon
[37] = test system: SNB-19 CNS
[38] = test system: M14 melanoma
[39] = test system: HOP-92 NSCLC
[40] = test system: MCF7 breast
[41] = test system: NCI-H23 lung
[42] = test system: NCI/ADR-RES ovarian
[43] = test system: NCI-H226 lung
[44] = test system: EKVX NSCLC
[45] = test system: KM12 colon
[46] = test system: OVCAR-3 ovarian
[47] = test system: HCT-116 colon
[48] = test system: NCI-H522 lung
[49] = test system: HCT-15 colon
[50] = test system: HS 578T breast
[51] = test system: HL-60(TB) leukemia
[52] = test system: SNB-75 CNS
[53] = test system: OVCAR-5 ovarian
[54] = test system: TK-10 renal
[55] = test system: IGROV1 ovarian
[56] = test system: SK-MEL-28 melanoma
[57] = test system: A549 NSCLC

Compound `CCn1cc(C(=O)N/N=C/c2ccc(Br)cc2)c(=O)c2cc(F)c(N3CCNC(C)C3)c(F)c21` (stereo not drawn) has a GI50 [1] of 1740 nM, a TGI [1] of 3180 nM and a GI50 [2] of 1940 nM. For the same compound, the TGI [2] was 4030 nM, the GI50 [3] was 1500 nM and the TGI [3] was 3170 nM. For the same compound, the GI50 [4] was 1660 nM, the TGI [4] was 3120 nM and the GI50 [5] was 1680 nM. It also gave a TGI [5] of 3080 nM, a GI50 [6] of 1490 nM and a TGI [6] of 3520 nM. For the same compound, the GI50 [7] was 1690 nM, the TGI [7] was 3060 nM and the GI50 [8] was 1930 nM. It also gave a TGI [8] of 3680 nM, a GI50 [9] of 1840 nM and a TGI [9] of 3370 nM. It also gave a GI50 [10] of 1780 nM, a TGI [10] of 3450 nM and a GI50 [11] of 1760 nM. For the same compound, the TGI [11] was 3420 nM, the GI50 [12] was 1610 nM and the TGI [12] was 3160 nM. The GI50 [13] was 1620 nM, the TGI [13] was 3140 nM and the GI50 [14] was 1690 nM. For the same compound, the TGI [14] was 3100 nM, the GI50 [15] was 2020 nM and the TGI [15] was 4100 nM. It also gave a GI50 [16] of 1750 nM, a TGI [16] of 3250 nM and a GI50 [17] of 1680 nM. The TGI [17] was 3180 nM, the GI50 [18] was 1630 nM and the TGI [18] was 3070 nM. The GI50 [19] was 1740 nM, the TGI [19] was 3320 nM and the GI50 [20] was 1680 nM. The TGI [20] was 3210 nM, the GI50 [21] was 1570 nM and the TGI [21] was 3010 nM. It also gave a GI50 [22] of 1880 nM, a TGI [22] of 3570 nM and a GI50 [23] of 1680 nM. The TGI [23] was 3210 nM, the GI50 [24] was 1560 nM and the TGI [24] was 2920 nM. The GI50 [25] was 1780 nM, the TGI [25] was 3420 nM and the GI50 [26] was 1650 nM. It also gave a TGI [26] of 3470 nM, a GI50 [27] of 1730 nM and a TGI [27] of 3150 nM. It also gave a GI50 [28] of 1850 nM, a TGI [28] of 3510 nM and a GI50 [29] of 1720 nM. The TGI [29] was 3170 nM, the GI50 [30] was 1590 nM and the TGI [30] was 3230 nM. The GI50 [31] was 1680 nM, the TGI [31] was 3470 nM and the GI50 [32] was 1850 nM. The TGI [32] was 3820 nM, the GI50 [33] was 1880 nM and the TGI [33] was 3360 nM. It also gave a GI50 [34] of 1780 nM, a TGI [34] of 5300 nM and a GI50 [35] of 2480 nM. The TGI [35] was 7540 nM, the GI50 [36] was 1710 nM and the TGI [36] was 3180 nM. It also gave a GI50 [37] of 1700 nM, a TGI [37] of 3080 nM and a GI50 [38] of 1910 nM. For the same compound, the TGI [38] was 3590 nM, the GI50 [39] was 1210 nM and the TGI [39] was 2580 nM. It also gave a GI50 [40] of 1560 nM, a TGI [40] of 3130 nM and a GI50 [41] of 1840 nM. The TGI [41] was 3540 nM, the GI50 [42] was 1950 nM and the TGI [42] was 3690 nM. For the same compound, the GI50 [43] was 2150 nM, the TGI [43] was 6130 nM and the GI50 [44] was 1590 nM. For the same compound, the TGI [44] was 3110 nM, the GI50 [45] was 1860 nM and the TGI [45] was 3500 nM. The GI50 [46] was 1790 nM, the TGI [46] was 3380 nM and the GI50 [47] was 1540 nM. The TGI [47] was 3160 nM, the GI50 [48] was 1850 nM and the TGI [48] was 3550 nM. For the same compound, the GI50 [49] was 1440 nM, the TGI [49] was 2930 nM and the GI50 [50] was 1990 nM. It also gave a TGI [50] of 5900 nM, a GI50 [51] of 1880 nM and a TGI [51] of 3800 nM. It also gave a GI50 [52] of 1570 nM, a TGI [52] of 2990 nM and a GI50 [53] of 1730 nM. For the same compound, the TGI [53] was 3220 nM, the GI50 [54] was 1740 nM and the TGI [54] was 3170 nM.
Compound `COc1cc2c(cc1OCCCCCN1CCN(c3cc(=O)oc4ccccc34)CC1)N=C[C@@H]1CCCN1C2=O` has a GI50 [1] of 221 nM, a TGI [1] of 3550 nM and a GI50 [2] of 206 nM. The TGI [2] was 481 nM, the GI50 [3] was under 41.1 nM and the TGI [3] was 3060 nM. For the same compound, the GI50 [4] was 63.3 nM, the TGI [4] was 2320 nM and the GI50 [5] was 556 nM. It also gave a TGI [5] of 1860 nM, a GI50 [6] of 124 nM and a TGI [6] of 364 nM. For the same compound, the GI50 [7] was 461 nM, the TGI [7] was 2550 nM and the GI50 [8] was 821 nM. It also gave a TGI [8] of over 41300 nM, a GI50 [9] of 27.7 nM and a TGI [9] of 730 nM. The TGI [10] was 2470 nM, the GI50 [11] was 42.2 nM and the TGI [11] was 280 nM. For the same compound, the GI50 [12] was 131 nM, the TGI [12] was 9990 nM and the GI50 [13] was 91.8 nM. It also gave a TGI [13] of 2340 nM, a GI50 [14] of 232 nM and a TGI [14] of 907 nM. For the same compound, the GI50 [15] was 198 nM, the TGI [15] was 533 nM and the GI50 [16] was under 38.7 nM. It also gave a TGI [16] of 450 nM, a GI50 [17] of 84.1 nM and a TGI [17] of 610 nM. The GI50 [18] was 62.9 nM, the TGI [18] was 253 nM and the GI50 [19] was 293 nM. For the same compound, the TGI [19] was 19900 nM, the GI50 [20] was 147 nM and the TGI [20] was 468 nM. It also gave a GI50 [21] of 182 nM, a TGI [21] of 664 nM and a GI50 [55] of 83 nM. The TGI [55] was 401 nM, the GI50 [22] was 176 nM and the TGI [22] was 398 nM. The GI50 [23] was 1590 nM, the TGI [23] was 5690 nM and the GI50 [56] was 437 nM. For the same compound, the TGI [56] was 1340 nM, the GI50 [24] was 690 nM and the TGI [24] was 11400 nM. It also gave a GI50 [25] of 219 nM, a TGI [25] of 536 nM and a TGI [26] of 2280 nM. It also gave a GI50 [27] of 183 nM, a TGI [27] of 425 nM and a GI50 [28] of 331 nM. It also gave a TGI [28] of 3160 nM, a GI50 [29] of 151 nM and a TGI [29] of 438 nM. It also gave a GI50 [30] of 158 nM, a TGI [30] of 778 nM and a GI50 [31] of 11.7 nM. The TGI [31] was 1410 nM, the GI50 [32] was under 39 nM and the TGI [32] was 285 nM. The GI50 [33] was 186 nM, the TGI [33] was 383 nM and the GI50 [34] was 220 nM. The TGI [34] was 488 nM, the GI50 [35] was 358 nM and the TGI [35] was 1710 nM. It also gave a GI50 [36] of 242 nM, a TGI [36] of 6660 nM and a GI50 [37] of 294 nM. The TGI [37] was 12500 nM, the GI50 [38] was 96.5 nM and the TGI [38] was 338 nM. For the same compound, the TGI [39] was 178 nM, the GI50 [57] was 2560 nM and the TGI [57] was 11500 nM. The GI50 [40] was 93 nM, the TGI [40] was 4950 nM and the GI50 [41] was 262 nM. The TGI [41] was 1100 nM, the GI50 [42] was 1910 nM and the TGI [42] was over 22000 nM. It also gave a GI50 [43] of 184 nM, a TGI [43] of 485 nM and a GI50 [44] of 848 nM. The TGI [44] was 4650 nM, the GI50 [45] was 268 nM and the TGI [45] was 1380 nM. For the same compound, the GI50 [46] was 263 nM, the TGI [46] was 653 nM and the GI50 [47] was 88.9 nM. For the same compound, the TGI [47] was 336 nM, the GI50 [48] was under 42.8 nM and the TGI [48] was 170 nM. The GI50 [49] was 1020 nM, the TGI [49] was 7270 nM and the GI50 [50] was 201 nM. It also gave a TGI [50] of 1840 nM, a GI50 [51] of under 45.3 nM and a TGI [51] of 1120 nM. The TGI [52] was 343 nM, the GI50 [53] was 407 nM and the TGI [53] was 18600 nM. The GI50 [54] was 175 nM and the TGI [54] was 13000 nM.
